Measurements: patent EP0509845A1, “(+) and (-) enantiomers of 5-aliphatic-6-(benzoxazinyl- or benzothiazinyl)-2,3,4,5-tetrahydropyridazin-3-ones” (ORTHO PHARMACEUTICAL CORPORATION, priority 1991, dated 1992)
Like-named read-outs stand apart in the source and are kept apart here. One block for each compound: values may come before it.

Experiments:
adult mongrel dogs [1] = assay: Cardiotonic activity, racemate testing in anesthetized dogs; assay type: in vivo
Experimental: The cardiotonic activity of the compounds was determined in accordance with the method of Alousi, A. A., et al., J. Cir. Res., 45, 666 (l979). Basically, adult mongrel dogs were anesthetized with sodium pentobarbital and artifically respired. Arterial pressure was recorded via a femoral artery and the pressure pulse used to trigger a cardiotachometer for heart rate. Left ventricular pressure was measured with a Millar catheter and dP/dt was derived. Cardiac output was determined by measuring ascending aortic blood flow with an electromagnetic flow probe and myocardial contractile force was measured with a Walton Brodie strain gauge sutured to the right ventricle. Lead II EKG was also recorded. A standard dose of dopamine was administered to assess myocardial responsiveness. Test compounds were administered by i.v. infusion or bolus administration and the effects on cardiovascular parameters were determined. Dose-related effects of the test compound on BP, HR, dP/dt max., C.F. and C.O. were compared to pretreatment control values and expressed as a percentage change.

[2] = test system: human platelet aggregation; assay: Platelet aggregation in vitro in platelet rich plasma; assay type: cell-based; conditions: Homo sapiens, Platelet, human PRP
Experimental: The racemate and enantiomeric Bemoradan were tested for their effects in vitro on human platelet aggregation. Platelet rich plasma (PRP) was prepared from human donors who were free of aspirin for the preceding week. Venous blood was collected in sodium citrate vacutainer tubes and PRP was obtained by centrifuging the blood at l000 rpm for 5 min. Compounds were dissolved in methanol and added to 480 µl of PRP in a Chrono-log dual channel aggregometer l min prior to aggregant. Serotonin at 5 µM or ADP at 2 µM were the aggregating agents.

adult mongrel dogs [3] = assay: Comparative racemate and enantiomer hemodynamic testing in pentobarbital anesthetized open-chest dogs; assay type: in vivo; conditions: dogs
Experimental: Adult mongrel dogs weighing approximately l0-l4 kg were anesthetized with sodium pentobarbital (35 mg/kg, i.p.) and artificially respired. A femoral artery was cannulated to measure mean arterial pressure (MAP) and a femoral vein was cannulated for administering compounds. A Millar microtip pressure transducer was placed in the left ventricle via the left carotid artery to measure left ventricular end diastolic pressure (EDP). pressure pulses triggered a cardiotachometer for determination of heart rate (HR) while the left ventricular pressure waveform was differentiated using a Gould differentiating amplifier to yield dP/dtmax, an index of contractility. A right thoractomy was performed at the fourth intercostal space and the pericardial sac was opened. An externally calibrated Walton-Brodie strain gauge arch was sutured to the right ventricular free wall and stretched to produce a baseline force of approximately l00g. Subsequent changes in right ventricular contractile force (CF) were measured from this baseline. A Carolina electromagnetic flow probe was placed on the ascending aorta to estimate cardiac output (CO). A flexible fluid-filled catheter was inserted into the tip of the right atrium to measure right atrial pressure (RAP). Needle electrodes were placed in the appropriate limbs to record a lead II electrocardiogram (ECG). The following formulas were used to calculate derived parameters: Stroke volume (SV) = CO/HR x l000 Stroke work (SW) = ([…]) x SV Total peripheral resistance (TPR) = (MAP-EDP)/CO
Following surgery and stabilization of hemodynamic parameters, an i.v. infusion of dopamine (l0-l5 µg/kg/min for 3 min) was administered with a Harvard infusion pump to assess responsiveness to positive inotropic stimulation. Baseline hemodynamic values were obtained immediately prior to drug infusion. Responses were continuously monitored on a recorder (Gould 2800) and data collection was facilitated by the use of a Buxco cardiovascular analyzer and data logger.
In the comparative testing a stock solution of each enantiomer (l mg/ml) was prepared fresh daily and diluted before use. Compounds were dissolved in a small volume of dimethylformamide (DMF) and diluted with saline for a final concentration of l5% DMF. Further dilutions were made with a l5% DMF solution.
In the comparative testing each compound was administered in cumulative doses to separate dogs. Data were obtained at the end of each dose. (±) Bemoradan and (+) Bemordan were infused at cumulative doses of 5, l5, 35 and 75 µg/kg, administered with a Harvard infusion pump for 5 minutes each at rates of 0.56, l.l, 2.2, and […], respectively. (-) Bemoradan was given at doses of 5, l5 and 35 µg/kg following the same protocol. The high dose of the (-) isomer was not administered as a means of conserving compound.
Hemodynamic results were expressed as the percent change from pre-drug baseline values and compared using a Dunnett's test with a criterion for significance of p < 0.05. Contractile force ED₄₀ values (i.e., the dose which increased contractile force by 40%) were calculated from dose-response regression lines.

[4] = target: T1, canine cardiac cyclic nucleotide phosphodiesterase (PDE) fraction III (Canis lupus familiaris, UniProt A0A8I3NYE0); assay: Cyclic AMP phosphodiesterase assay with fraction III isoenzyme, comparative testing; assay type: biochemical
T1 construct: The fraction III isoenzyme was pooled and dialyzed; from tissue; host or cells: canine heart, soluble supernatant, DEAE cellulose fraction III (800 mM sodium acetate eluate)
T1 sequence (A0A8I3NYE0 1-1135): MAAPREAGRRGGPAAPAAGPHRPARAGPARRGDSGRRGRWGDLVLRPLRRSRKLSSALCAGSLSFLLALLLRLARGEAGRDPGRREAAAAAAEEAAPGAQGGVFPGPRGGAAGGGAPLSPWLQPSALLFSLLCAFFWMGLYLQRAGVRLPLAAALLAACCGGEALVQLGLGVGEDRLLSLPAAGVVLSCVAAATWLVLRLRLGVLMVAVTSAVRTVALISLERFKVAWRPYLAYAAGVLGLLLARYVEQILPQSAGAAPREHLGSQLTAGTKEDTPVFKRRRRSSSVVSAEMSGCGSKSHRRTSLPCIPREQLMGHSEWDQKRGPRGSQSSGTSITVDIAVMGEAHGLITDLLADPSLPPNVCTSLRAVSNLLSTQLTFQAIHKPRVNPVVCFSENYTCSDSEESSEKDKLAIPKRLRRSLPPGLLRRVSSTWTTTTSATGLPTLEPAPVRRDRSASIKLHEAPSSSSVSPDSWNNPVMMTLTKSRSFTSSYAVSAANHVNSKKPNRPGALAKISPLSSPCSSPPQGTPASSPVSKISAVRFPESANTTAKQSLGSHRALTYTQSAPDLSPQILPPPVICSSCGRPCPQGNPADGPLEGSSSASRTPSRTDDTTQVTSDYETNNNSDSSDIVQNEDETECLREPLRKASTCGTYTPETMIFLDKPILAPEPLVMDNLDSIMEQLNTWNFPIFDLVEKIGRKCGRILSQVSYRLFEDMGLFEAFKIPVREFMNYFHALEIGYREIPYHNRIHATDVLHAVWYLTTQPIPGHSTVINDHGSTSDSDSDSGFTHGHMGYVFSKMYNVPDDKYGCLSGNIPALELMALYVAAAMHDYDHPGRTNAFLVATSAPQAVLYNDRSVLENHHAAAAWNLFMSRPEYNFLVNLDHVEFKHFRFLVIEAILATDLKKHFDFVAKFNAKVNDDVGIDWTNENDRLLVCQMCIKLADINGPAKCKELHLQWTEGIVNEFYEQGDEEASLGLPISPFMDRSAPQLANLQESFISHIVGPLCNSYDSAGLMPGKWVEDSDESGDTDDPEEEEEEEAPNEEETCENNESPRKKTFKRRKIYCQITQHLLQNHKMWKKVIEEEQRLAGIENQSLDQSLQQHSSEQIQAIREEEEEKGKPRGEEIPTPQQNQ

[5] = target: T2, cyclic nucleotide phosphodiesterase (Canis lupus familiaris, UniProt A0A8I3NYE0); assay: Phosphodiesterase inhibitory activity, racemate testing; assay type: biochemical; conditions: read-out: IC50 (Micromolar concentration for 50% inhibition of cyclic nucleotide activity); cyclic AMP as substrate, Tris-Cl buffer pH 7.4
T2 sequence (A0A8I3NYE0 1-1135): T1 sequence (A0A8I3NYE0 1-1135)

IC50 [5]: 25000 nM
Compound: COC(=O)CC(C)C(=O)c1ccc2c(c1)SCC(=O)N2C (stereo not drawn) [Example 53, Methyl 4-(3,4-dihydro-4-methyl-3-oxo-l,4[2H]-benzothiazin-7-yl)-3-methyl-4-oxobutyrate]
CF (Percent increase in cardiac force) (adult mongrel dogs [1]; I.V. dose 0.075 mpk): 21%

IC50 [5]: 22000 nM
Compound: O=C1CCC(c2ccc3c(c2)NC(=O)CS3)=NN1 [Example 54, 6-(3,4-Dihydro-3-oxo-l,4[2H]-benzothiazin-6-yl)-2,3,4,5-tetrahydropyridazin-3-one]
CF (Percent increase in cardiac force) (adult mongrel dogs [1]; I.V. dose 0.075 mpk): 11%

IC50 [5]: < 100 nM
Compound: CN1C(=O)CSc2ccc(C3=NNC(=O)CC3)cc21 [Example 55, 6-(3,4-Dihydro-4-methyl-3-oxo-l,4[2H]-benzothiazin-6-yl)-2,3,4,5-tetrahydropyridazin-3-one]
CF (Percent increase in cardiac force) (adult mongrel dogs [1]; I.V. dose 0.035 mpk): 160%

The next lines start with the compound.

Compound: 6-(3,4-Dihydro-3-oxo-l,4[2H]-benzothiazin-7-yl)-2,3,4,5-tetrahydro-5-methylpyridazin-3-one [Example 56]
CF (Percent increase in cardiac force) (adult mongrel dogs [1]; I.V. dose 0.027 mpk): 32%

Compound: CC1CC(=O)NN=C1c1ccc2c(c1)OCC(=O)N2 (racemic) [Example 46, 6-(3,4-Dihydro-3-oxo-l,4(2H)-benzoxazin-7-yl)-2,3,4,5-tetrahydro-5-methylpyridazin-3-one]
IC50 ([2]; ADP at 2 µM, read-out: Antiaggregatory IC50 (µM) vs. ADP): 0.65 µM
IC50 ([2]; Serotonin at 5 µM, read-out: Antiaggregatory IC50 (µM) vs. 5-HT): 0.4 µM
IC50 ([2]; Table I summary, ADP at 2 µM as aggregant, read-out: Platelet aggregation (IC50) vs. ADP): 0.65 µM
IC50 ([2]; Table I summary, serotonin at 5 µM as aggregant, read-out: Platelet aggregation (IC50) vs. 5-HT (serotonin)): 0.4 µM
ED40 (adult mongrel dogs [3]; Canis lupus familiaris, iv, Table I summary, dose increasing contractile force by 40%, i.v., read-out: In vivo inotropic ED40, i.v.): 4.4 µg/kg
CF ED40 (µg/kg) with 95% F.L. (adult mongrel dogs [3]; dose causing a 40% increase in contractility above baseline, from dose-response regression lines, i.v. infusion): 4.4 (3.9 - 4.9) µg/kg
IC50 ([4]; Table I summary, canine cardiac PDE fraction III, read-out: PDE III inhibition (IC50)): 710 nM
IC50 ([4]; canine heart fraction III, 0.1 µM cyclic AMP, read-out: PDE III IC50): 710 nM
